GRK2 inhibition potency and IC50 data for twelve compounds are collected here from US10023564B2, “G protein-coupled receptor kinase 2 inhibitors and methods for use of the same” (THE REGENTS OF THE UNIVERSITY OF MICHIGAN, priority 2014, dated 2018).

For orientation: IC50 means the concentration at which inhibition is half-maximal. Higher therefore signals weaker potency.

The target of one experiment is T1, GRK2 (Homo sapiens (Human), UniProt P25098).
T1 sequence (P25098 whole entry, species assumed): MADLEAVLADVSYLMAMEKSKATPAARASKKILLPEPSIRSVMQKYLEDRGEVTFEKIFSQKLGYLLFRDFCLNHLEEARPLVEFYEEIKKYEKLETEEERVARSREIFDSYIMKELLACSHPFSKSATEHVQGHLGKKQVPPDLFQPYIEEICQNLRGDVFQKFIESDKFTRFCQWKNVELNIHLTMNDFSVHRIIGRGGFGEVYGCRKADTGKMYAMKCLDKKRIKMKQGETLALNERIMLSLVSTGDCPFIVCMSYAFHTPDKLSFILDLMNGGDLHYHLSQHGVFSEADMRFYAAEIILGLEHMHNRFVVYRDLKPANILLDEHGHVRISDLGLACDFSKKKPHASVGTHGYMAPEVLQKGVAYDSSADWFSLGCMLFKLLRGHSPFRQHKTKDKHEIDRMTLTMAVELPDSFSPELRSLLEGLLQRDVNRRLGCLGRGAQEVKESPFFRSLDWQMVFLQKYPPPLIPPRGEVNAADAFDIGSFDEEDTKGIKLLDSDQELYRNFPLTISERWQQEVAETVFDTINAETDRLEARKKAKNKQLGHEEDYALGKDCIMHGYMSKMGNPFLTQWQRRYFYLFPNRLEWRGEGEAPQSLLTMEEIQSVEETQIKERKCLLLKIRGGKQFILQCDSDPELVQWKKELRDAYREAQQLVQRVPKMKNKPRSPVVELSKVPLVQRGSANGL
Assay: not given
The settings on record: literature (Setyawan et al. 1999; Tesmer et al. 2010); cited from earlier work.
Turning to `O=C(N[C@@H]1CNCCC[C@H]1OC(=O)c1cc(O)c(C(=O)c2c(O)cccc2C(=O)O)c(O)c1)c1ccc(O)cc1` [balanol], the GRK2 inhibition potency entry is given as “low nanomolar range”.

The target in the next experiment is T1, GRK2. The experiment in a line: GRK2 kinetic assay (phosphorylation of bROS or tubulin, phosphorimaging). It counts as biochemical. The settings on record: 50 nM GRK, 5 μM ATP, 5 min reaction. On the procedure:
The low salt concentration and DDM were used to maximize GRK activity and disrupt small molecule aggregates from forming, respectively. […] Data was analyzed and inhibition curves were fit via GraphPad Prism.
Consider `CC1=C(C(=O)Nc2ccc3[nH]ncc3c2)C(c2ccc(F)c(C(=O)NCc3c(F)cccc3F)c2)NC(=O)N1` (centres unmarked) [Example E02, 4-(3-((2,6-difluorobenzyl)carbamoyl)-4-fluorophenyl)-N-(1H-indazol-5-yl)-6-methyl-2-oxo-1,2,3,4-tetrahydropyrimidine-5-carboxamide], for which the IC50 came out at 120 nM.
Turning to `CC1=C(C(=O)Nc2ccc3[nH]ncc3c2)C(c2ccc(F)c(C(=O)NCc3nccc4ccccc34)c2)NC(=O)N1` (centres unmarked) [Example E08, 4-(4-fluoro-3-((isoquinolin-1-ylmethyl)carbamoyl)phenyl)-N-(1H-indazol-5-yl)-6-methyl-2-oxo-1,2,3,4-tetrahydropyrimidine-5-carboxamide], the concentration for half-maximal inhibition (IC50) was 2600 nM.
Same read-out and setting: then `COc1ccccc1C(C)NC(=O)c1cc(C2NC(=O)NC(C)=C2C(=O)Nc2ccc3[nH]ncc3c2)ccc1F` (centres unmarked) [Example E27, 4-(4-fluoro-3-((1-(2-methoxyphenyl)ethyl)carbamoyl)phenyl)-N-(1H-indazol-5-yl)-6-methyl-2-oxo-1,2,3,4-tetrahydropyrimidine-5-carboxamide], with 320 nM.
Same read-out and setting: then `CC1=C(C(=O)Nc2ccc3[nH]ncc3c2)C(c2ccc(F)c(CC(=O)N3CCOC(CCO)C3)c2)NC(=O)N1` (centres unmarked) [Example E31, 4-(4-fluoro-3-(2-(2-(2-hydroxyethyl)morpholino)-2-oxoethyl)phenyl)-N-(1H-indazol-5-yl)-6-methyl-2-oxo-1,2,3,4-tetrahydropyrimidine-5-carboxamide], with 1500 nM.
The same measure, in the same setting: then `CC1=C(C(=O)Nc2ccc3[nH]ncc3c2)C(c2ccc(F)c(CC(=O)N(CCO)Cc3ccco3)c2)NC(=O)N1` (centres unmarked) [Example E32, 4-(4-fluoro-3-(2-((furan-2-ylmethyl)(2-hydroxyethyl)amino)-2-oxoethyl)phenyl)-N-(1H-indazol-5-yl)-6-methyl-2-oxo-1,2,3,4-tetrahydropyrimidine-5-carboxamide], with 500 nM; and `CC1=C(C(=O)Nc2ccc3[nH]ncc3c2)C(c2ccc(F)c(CC(=O)NCC3CCN(C4CC4)CC3)c2)NC(=O)N1` (centres unmarked) [Example E33, 4-(3-(2-(((1-cyclopropylpiperidin-4-yl)methyl)amino)-2-oxoethyl)-4-fluorophenyl)-N-(1H-indazol-5-yl)-6-methyl-2-oxo-1,2,3,4-tetrahydropyrimidine-5-carboxamide], with 680 nM; and `CC1=C(C(=O)Nc2ccc3[nH]ncc3c2)C(c2ccc(F)c(CC(=O)N(C)Cc3nc(C)c[nH]3)c2)NC(=O)N1` (centres unmarked) [Example E34, 4-(4-fluoro-3-(2-(methyl((4-methyl-1H-imidazol-2-yl)methyl)amino)-2-oxoethyl)phenyl)-N-(1H-indazol-5-yl)-6-methyl-2-oxo-1,2,3,4-tetrahydropyrimidine-5-carboxamide], with 1200 nM.
The compound `C#CCN(Cc1ccco1)C(=O)Cc1cc(C2NC(=O)NC(C)=C2C(=O)Nc2ccc3[nH]ncc3c2)ccc1F` (centres unmarked) [Example E35, 4-(4-fluoro-3-(2-((furan-2-ylmethyl)(prop-2-yn-1-yl)amino)-2-oxoethyl)phenyl)-N-(1H-indazol-5-yl)-6-methyl-2-oxo-1,2,3,4-tetrahydropyrimidine-5-carboxamide] displayed a half-maximal inhibitory concentration (IC50) of 960 nM.
Same read-out and setting: the same measure for `C#CCN(CC(C)C)C(=O)Cc1cc(C2NC(=O)NC(C)=C2C(=O)Nc2ccc3[nH]ncc3c2)ccc1F` (centres unmarked) [Example E36, 4-(4-fluoro-3-(2-(isobutyl(prop-2-yn-1-yl)amino)-2-oxoethyl)phenyl)-N-(1H-indazol-5-yl)-6-methyl-2-oxo-1,2,3,4-tetrahydropyrimidine-5-carboxamide]: 2600 nM.
Take `CC1=C(C(=O)Nc2ccc3[nH]ncc3c2)C(c2ccc(F)c(CCC(=O)NCc3ncc(C)o3)c2)NC(=O)N1` (centres unmarked) [Example E37, 4-(4-fluoro-3-(3-(((5-methyloxazol-2-yl)methyl)amino)-3-oxopropyl)phenyl)-N-(1H-indazol-5-yl)-6-methyl-2-oxo-1,2,3,4-tetrahydropyrimidine-5-carboxamide]: the IC50 worked out at 4000 nM.
In turn, `CC1=C(C(=O)Nc2ccc3[nH]ncc3c2)C(c2ccc(F)c(CCC(=O)NCCc3ccccc3)c2)NC(=O)N1` (centres unmarked) [Example E38, 4-(4-fluoro-3-(3-oxo-3-(phenethylamino)propyl)phenyl)-N-(1H-indazol-5-yl)-6-methyl-2-oxo-1,2,3,4-tetrahydropyrimidine-5-carboxamide] registered an IC50 of 7000 nM.

In the next experiment the target is ROCK1 (Homo sapiens (Human), UniProt Q13464). The experiment in a line: Rho-associated coiled-coil kinase (ROCK) assay, ADP-Glo system. The settings on record: 0.1 μg ROCK1, 1 μg S6K substrate, 100 μM ATP, 60 min. It counts as biochemical. On the procedure: Rho-associated coiled-coil kinase (ROCK) assays were performed with the ADP-Glo system using 0.1 μg ROCK1 and 1 μg S6K substrate, and 100 μM ATP for 60 min prior to addition of ADP-GLO Reagent, and allowed to incubate for an additional 40 min prior to the addition of the Kinase Detection Reagent and imaging on a PHERASTAR system.
Chain of ROCK1 (Q13464 whole entry, species assumed): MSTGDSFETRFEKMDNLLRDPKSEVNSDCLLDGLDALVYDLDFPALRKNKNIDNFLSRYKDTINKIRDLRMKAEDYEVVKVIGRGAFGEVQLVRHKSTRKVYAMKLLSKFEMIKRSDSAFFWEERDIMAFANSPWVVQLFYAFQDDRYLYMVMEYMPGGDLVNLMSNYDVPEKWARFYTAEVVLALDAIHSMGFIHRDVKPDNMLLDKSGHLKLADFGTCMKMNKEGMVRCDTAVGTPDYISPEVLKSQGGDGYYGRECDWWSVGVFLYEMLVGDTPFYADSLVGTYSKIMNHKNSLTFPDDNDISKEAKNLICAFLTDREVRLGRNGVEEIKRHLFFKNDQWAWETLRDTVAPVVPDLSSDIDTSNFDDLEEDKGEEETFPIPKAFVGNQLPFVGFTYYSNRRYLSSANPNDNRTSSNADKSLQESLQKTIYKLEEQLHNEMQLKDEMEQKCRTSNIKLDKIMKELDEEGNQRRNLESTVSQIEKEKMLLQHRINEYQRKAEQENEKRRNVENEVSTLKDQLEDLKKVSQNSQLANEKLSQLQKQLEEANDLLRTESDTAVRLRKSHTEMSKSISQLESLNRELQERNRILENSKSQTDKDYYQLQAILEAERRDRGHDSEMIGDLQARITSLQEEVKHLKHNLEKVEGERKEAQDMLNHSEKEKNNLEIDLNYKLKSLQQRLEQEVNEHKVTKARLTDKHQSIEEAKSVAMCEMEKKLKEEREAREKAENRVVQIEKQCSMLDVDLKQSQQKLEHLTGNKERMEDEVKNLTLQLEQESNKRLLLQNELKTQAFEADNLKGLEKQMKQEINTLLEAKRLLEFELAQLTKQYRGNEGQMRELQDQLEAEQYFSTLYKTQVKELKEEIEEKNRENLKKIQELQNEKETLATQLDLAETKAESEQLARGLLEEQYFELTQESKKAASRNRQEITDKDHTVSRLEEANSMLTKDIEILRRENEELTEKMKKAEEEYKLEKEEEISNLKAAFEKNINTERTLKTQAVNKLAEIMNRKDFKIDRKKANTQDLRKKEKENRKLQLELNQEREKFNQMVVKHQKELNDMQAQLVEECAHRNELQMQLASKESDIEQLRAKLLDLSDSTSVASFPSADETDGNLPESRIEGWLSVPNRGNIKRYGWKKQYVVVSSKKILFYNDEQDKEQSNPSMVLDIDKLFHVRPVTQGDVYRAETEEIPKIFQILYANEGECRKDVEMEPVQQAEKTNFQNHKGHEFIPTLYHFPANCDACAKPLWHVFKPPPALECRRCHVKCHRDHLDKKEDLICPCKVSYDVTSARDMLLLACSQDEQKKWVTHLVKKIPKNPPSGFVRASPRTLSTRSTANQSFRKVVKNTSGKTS
(ADP-Glo first removes unused ATP, then detects ADP through luciferase.)
In turn, `CC1=C(C(=O)Nc2ccc3[nH]ncc3c2)C(c2ccc(F)c(C(=O)NCc3c(F)cccc3F)c2)NC(=O)N1` (centres unmarked) [Example E02, 4-(3-((2,6-difluorobenzyl)carbamoyl)-4-fluorophenyl)-N-(1H-indazol-5-yl)-6-methyl-2-oxo-1,2,3,4-tetrahydropyrimidine-5-carboxamide] yielded an IC50 of 61 nM.
On to `CC1=C(C(=O)Nc2ccc3[nH]ncc3c2)C(c2ccc(F)c(C(=O)NCc3nccc4ccccc34)c2)NC(=O)N1` (centres unmarked) [Example E08, 4-(4-fluoro-3-((isoquinolin-1-ylmethyl)carbamoyl)phenyl)-N-(1H-indazol-5-yl)-6-methyl-2-oxo-1,2,3,4-tetrahydropyrimidine-5-carboxamide], for which the IC50 came out at 17 nM.
